Test results reported in PubChem BioAssay AID1963433 (Molecular Pharmacology Branch, DTP, NCI, 2024).

System: 772245-204-R-J1-PDC complex spheroid growth
Test: Anticancer human tumor 772245-204-R-J1-PDC patient-derived rhabdomyosarcoma cell line growth inhibition [Asc]
Conditions: for IC50: curve of first compound; for viability, T/C: stronger effect = lower value
Procedure, shortened: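 Complex spheroids combining tumor cells with HUVEC endothelial cells and human MSCs, at 37 degrees C, 5% CO2; agents tested alone or combined, half-log dilutions from at or near clinical Cmax, or 10 microM if Cmax unknown.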

[1] = second compound 0.03 µM, first compound 0.00316 µM
[2] = second compound 0.03 µM, first compound 0.01 µM
[3] = second compound 0.03 µM, first compound 0.0316 µM
[4] = second compound 0.03 µM, first compound 0.1 µM
[5] = second compound 0.0949 µM, first compound 0.00316 µM
[6] = second compound 0.0949 µM, first compound 0.01 µM
[7] = second compound 0.0949 µM, first compound 0.0316 µM
[8] = second compound 0.0949 µM, first compound 0.1 µM
[9] = second compound 0.3 µM, first compound 0.00316 µM
[10] = second compound 0.3 µM, first compound 0.01 µM
[11] = second compound 0.3 µM, first compound 0.0316 µM
[12] = second compound 0.3 µM, first compound 0.1 µM
[13] = second compound 0.949 µM, first compound 0.00316 µM
[14] = second compound 0.949 µM, first compound 0.01 µM
[15] = second compound 0.949 µM, first compound 0.0316 µM
[16] = second compound 0.949 µM, first compound 0.1 µM
[17] = second compound 3 µM, first compound 0.00316 µM
[18] = second compound 3 µM, first compound 0.01 µM
[19] = second compound 3 µM, first compound 0.0316 µM
[20] = second compound 3 µM, first compound 0.1 µM
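Also: compound exposure lasted seven days.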
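For viability, T/C in this document: 100% = DMSO vehicle control viability.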

COc1c(OCCCN2CCOCC2)ccc2c3n(c(=NC(=O)c4cnc(N)nc4)nc12)CCN3 + CCN1C(C(=O)NC23CCC(C(=O)O)(CC2)CC3)C(c2cccc(Cl)c2F)C2(C(=O)Nc3cc(Cl)ccc32)C12CCCCC2
IC50 (second compound 0.03 µM): 188 nM | IC50 (second compound 0.0949 µM): 146 nM | IC50 (second compound 0.3 µM): 90.5 nM | IC50 (second compound 0.949 µM): 139 nM | IC50 (second compound 3 µM): 51.4 nM | viability, T/C [1]: 99.5% | viability, T/C [2]: 105% | viability, T/C [3]: 83.7% | viability, T/C [4]: 61.6% | viability, T/C (second compound 0.03 µM, first compound 0.316 µM): 41.8% | viability, T/C (second compound 0.03 µM, first compound 1 µM): 32.3% | viability, T/C [5]: 105% | viability, T/C [6]: 97.6% | viability, T/C [7]: 80% | viability, T/C [8]: 57.5% | viability, T/C (second compound 0.0949 µM, first compound 0.316 µM): 35.6% | viability, T/C (second compound 0.0949 µM, first compound 1 µM): 24.8% | viability, T/C [9]: 103% | viability, T/C [10]: 109% | viability, T/C [11]: 84.7% | viability, T/C [12]: 46.6% | viability, T/C (second compound 0.3 µM, first compound 0.316 µM): 39.1% | viability, T/C (second compound 0.3 µM, first compound 1 µM): 30% | viability, T/C [13]: 105% | viability, T/C [14]: 99% | viability, T/C [15]: 77.2% | viability, T/C [16]: 55.2% | viability, T/C (second compound 0.949 µM, first compound 0.316 µM): 37.3% | viability, T/C (second compound 0.949 µM, first compound 1 µM): 23% | viability, T/C [17]: 69.3% | viability, T/C [18]: 78.5% | viability, T/C [19]: 57.4% | viability, T/C [20]: 38.1% | viability, T/C (second compound 3 µM, first compound 0.316 µM): 29.5% | viability, T/C (second compound 3 µM, first compound 1 µM): 26.6%

NC(=O)C(=Cn1cnc(-c2cc(C(F)(F)F)cc(C(F)(F)F)c2)n1)c1cncnc1 + CCN1C(C(=O)NC23CCC(C(=O)O)(CC2)CC3)C(c2cccc(Cl)c2F)C2(C(=O)Nc3cc(Cl)ccc32)C12CCCCC2
IC50 (second compound 0.03 µM): 75.5 nM | IC50 (second compound 0.0949 µM): 27.3 nM | IC50 (second compound 0.3 µM): 47.3 nM | IC50 (second compound 0.949 µM): 28.2 nM | IC50 (second compound 3 µM): 14.5 nM | viability, T/C (second compound 0.03 µM, first compound 0.000949 µM): 88.9% | viability, T/C (second compound 0.03 µM, first compound 0.003 µM): 96.5% | viability, T/C (second compound 0.03 µM, first compound 0.00949 µM): 97.1% | viability, T/C (second compound 0.03 µM, first compound 0.03 µM): 92.4% | viability, T/C (second compound 0.03 µM, first compound 0.0949 µM): 38.5% | viability, T/C (second compound 0.03 µM, first compound 0.3 µM): 40.5% | viability, T/C (second compound 0.0949 µM, first compound 0.000949 µM): 103% | viability, T/C (second compound 0.0949 µM, first compound 0.003 µM): 93.1% | viability, T/C (second compound 0.0949 µM, first compound 0.00949 µM): 88.5% | viability, T/C (second compound 0.0949 µM, first compound 0.03 µM): 44.5% | viability, T/C (second compound 0.0949 µM, first compound 0.0949 µM): 37.2% | viability, T/C (second compound 0.0949 µM, first compound 0.3 µM): 22.6% | viability, T/C (second compound 0.3 µM, first compound 0.000949 µM): 94.7% | viability, T/C (second compound 0.3 µM, first compound 0.003 µM): 105% | viability, T/C (second compound 0.3 µM, first compound 0.00949 µM): 85.2% | viability, T/C (second compound 0.3 µM, first compound 0.03 µM): 62.8% | viability, T/C (second compound 0.3 µM, first compound 0.0949 µM): 31.1% | viability, T/C (second compound 0.3 µM, first compound 0.3 µM): 30.4% | viability, T/C (second compound 0.949 µM, first compound 0.000949 µM): 92.8% | viability, T/C (second compound 0.949 µM, first compound 0.003 µM): 88.8% | viability, T/C (second compound 0.949 µM, first compound 0.00949 µM): 84.7% | viability, T/C (second compound 0.949 µM, first compound 0.03 µM): 46.4% | viability, T/C (second compound 0.949 µM, first compound 0.0949 µM): 28.8% | viability, T/C (second compound 0.949 µM, first compound 0.3 µM): 18.1% | viability, T/C (second compound 3 µM, first compound 0.000949 µM): 69.9% | viability, T/C (second compound 3 µM, first compound 0.003 µM): 66.9% | viability, T/C (second compound 3 µM, first compound 0.00949 µM): 69.5% | viability, T/C (second compound 3 µM, first compound 0.03 µM): 17.7% | viability, T/C (second compound 3 µM, first compound 0.0949 µM): 10.8% | viability, T/C (second compound 3 µM, first compound 0.3 µM): 15.9%

NC1CCC(NC2CC2c2ccccc2)CC1 (stereo not given) + CCN1C(C(=O)NC23CCC(C(=O)O)(CC2)CC3)C(c2cccc(Cl)c2F)C2(C(=O)Nc3cc(Cl)ccc32)C12CCCCC2
IC50 (second compound 0.03 µM): > 100 nM | IC50 (second compound 0.0949 µM): > 100 nM | IC50 (second compound 0.3 µM): > 100 nM | IC50 (second compound 0.949 µM): > 100 nM | IC50 (second compound 3 µM): > 100 nM | viability, T/C (second compound 0.03 µM, first compound 0.000316 µM): 103% | viability, T/C (second compound 0.03 µM, first compound 0.001 µM): 94.6% | viability, T/C [1]: 100% | viability, T/C [2]: 86.5% | viability, T/C [3]: 108% | viability, T/C [4]: 98.1% | viability, T/C (second compound 0.0949 µM, first compound 0.000316 µM): 96.3% | viability, T/C (second compound 0.0949 µM, first compound 0.001 µM): 96.3% | viability, T/C [5]: 90.3% | viability, T/C [6]: 92.5% | viability, T/C [7]: 84.9% | viability, T/C [8]: 93.5% | viability, T/C (second compound 0.3 µM, first compound 0.000316 µM): 106% | viability, T/C (second compound 0.3 µM, first compound 0.001 µM): 80.2% | viability, T/C [9]: 101% | viability, T/C [10]: 85.5% | viability, T/C [11]: 111% | viability, T/C [12]: 89.8% | viability, T/C (second compound 0.949 µM, first compound 0.000316 µM): 95.2% | viability, T/C (second compound 0.949 µM, first compound 0.001 µM): 80.8% | viability, T/C [13]: 83.6% | viability, T/C [14]: 86.9% | viability, T/C [15]: 95.1% | viability, T/C [16]: 96.3% | viability, T/C (second compound 3 µM, first compound 0.000316 µM): 70.2% | viability, T/C (second compound 3 µM, first compound 0.001 µM): 65.8% | viability, T/C [17]: 73.2% | viability, T/C [18]: 77.9% | viability, T/C [19]: 73.1% | viability, T/C [20]: 75.4%
